Test results: patent US20020090373A1, “ADAMTS polypeptides, nucleic acids encoding them, and uses thereof” (priority 2000, published 2002)

T1: Recombinant human ADAMTS-SI (Homo sapiens, UniProt Q9P2N4)
T1 construct: made in house
T1 sequence (Q9P2N4 288-1629 isoform Q9P2N4-1 limits assumed): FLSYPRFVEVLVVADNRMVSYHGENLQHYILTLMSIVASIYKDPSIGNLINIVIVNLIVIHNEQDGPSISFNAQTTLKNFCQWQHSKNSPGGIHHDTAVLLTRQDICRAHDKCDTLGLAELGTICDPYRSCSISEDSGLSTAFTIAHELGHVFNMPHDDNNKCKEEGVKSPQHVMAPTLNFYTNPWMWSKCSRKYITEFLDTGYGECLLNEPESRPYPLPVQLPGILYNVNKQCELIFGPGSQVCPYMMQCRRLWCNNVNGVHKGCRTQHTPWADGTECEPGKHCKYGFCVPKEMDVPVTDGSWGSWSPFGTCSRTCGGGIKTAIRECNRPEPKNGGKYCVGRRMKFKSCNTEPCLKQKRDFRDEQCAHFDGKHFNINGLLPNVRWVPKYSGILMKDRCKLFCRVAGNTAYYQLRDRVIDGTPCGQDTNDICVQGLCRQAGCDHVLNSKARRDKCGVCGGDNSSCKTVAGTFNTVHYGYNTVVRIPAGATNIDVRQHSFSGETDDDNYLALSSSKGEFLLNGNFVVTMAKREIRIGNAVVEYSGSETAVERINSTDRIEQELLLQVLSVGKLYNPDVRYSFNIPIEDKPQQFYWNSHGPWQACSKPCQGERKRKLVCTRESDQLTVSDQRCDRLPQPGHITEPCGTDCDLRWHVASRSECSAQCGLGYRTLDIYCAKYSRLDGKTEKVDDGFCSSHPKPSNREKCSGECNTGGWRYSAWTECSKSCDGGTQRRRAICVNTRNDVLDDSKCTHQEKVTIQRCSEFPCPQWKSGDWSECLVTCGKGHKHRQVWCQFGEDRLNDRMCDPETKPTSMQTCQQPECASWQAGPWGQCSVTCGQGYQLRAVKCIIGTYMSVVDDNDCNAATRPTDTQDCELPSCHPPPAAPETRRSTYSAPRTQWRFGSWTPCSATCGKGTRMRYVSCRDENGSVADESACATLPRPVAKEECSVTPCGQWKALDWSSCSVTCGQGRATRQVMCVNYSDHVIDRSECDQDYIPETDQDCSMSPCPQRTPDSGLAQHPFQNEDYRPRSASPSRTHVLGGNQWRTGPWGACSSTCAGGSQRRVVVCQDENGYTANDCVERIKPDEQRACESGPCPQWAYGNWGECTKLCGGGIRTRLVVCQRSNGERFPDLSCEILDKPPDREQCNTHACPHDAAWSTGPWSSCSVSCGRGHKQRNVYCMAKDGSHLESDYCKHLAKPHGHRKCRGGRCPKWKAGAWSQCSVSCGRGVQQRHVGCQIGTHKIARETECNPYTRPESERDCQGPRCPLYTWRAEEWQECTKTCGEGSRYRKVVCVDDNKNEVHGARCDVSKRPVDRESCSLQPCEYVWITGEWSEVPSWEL

T2: recombinant human ADAMTS-4 (Homo sapiens, UniProt O75173)
T2 sequence (O75173 213-837): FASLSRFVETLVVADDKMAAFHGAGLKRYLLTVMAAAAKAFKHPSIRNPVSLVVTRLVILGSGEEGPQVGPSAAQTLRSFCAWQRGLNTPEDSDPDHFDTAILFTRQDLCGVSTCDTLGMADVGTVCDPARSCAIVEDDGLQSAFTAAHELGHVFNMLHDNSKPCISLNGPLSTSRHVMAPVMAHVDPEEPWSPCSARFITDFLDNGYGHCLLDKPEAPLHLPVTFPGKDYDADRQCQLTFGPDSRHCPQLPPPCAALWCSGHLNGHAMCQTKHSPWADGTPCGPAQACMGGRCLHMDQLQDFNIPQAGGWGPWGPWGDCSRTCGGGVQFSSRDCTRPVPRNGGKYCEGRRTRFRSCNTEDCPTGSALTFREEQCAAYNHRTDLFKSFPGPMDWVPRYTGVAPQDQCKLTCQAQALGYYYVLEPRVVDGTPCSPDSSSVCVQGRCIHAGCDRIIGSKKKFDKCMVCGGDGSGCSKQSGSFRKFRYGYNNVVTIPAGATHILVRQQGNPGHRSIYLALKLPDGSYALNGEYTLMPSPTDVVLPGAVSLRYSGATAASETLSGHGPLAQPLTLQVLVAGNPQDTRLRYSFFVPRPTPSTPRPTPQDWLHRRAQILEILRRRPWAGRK


Columns and labels:
[1] = test system: aggrecan degradation induced by intraarticular injection of IL-1; conditions: hamsters, intraarticular injection of IL-1, 30 mg/kg p.o.; cited from earlier work
[2] = target: aggrecanase activity secreted by human osteoarthritic cartilage; conditions: cited from earlier work
[3] = test system: IL-1 induced aggrecan degradation in human osteoarthritic cartilage explants; conditions: cited from earlier work
[4] = target: T1, Recombinant human ADAMTS-SI; experiment: Western blot (anti-NITEGE neoepitope) of aggrecanase substrate cleavage by ADAMTS-SI ± compound I; assay type: biochemical; conditions: 1 μM compound I, 1 μM substrate, 18 hours at 37° C., FIG. 8
Description: (§1) Recombinant human ADAMTS-SI (20 μl) and recombinant human ADAMTS-4 (MD Tortorella, Science, 284:1664) (20 μl) were incubated with 1 μM of aggrecanase substrate (aggrecan protein containing the interglobular domain (IGD)). The substrate is cleaved at the relevant aggrecanase site by aggrecanases such as ADAMTS-4. […] The aggrecanase substrate has been used to assess the activity of various aggrecanases, such as ADAMTS-4, and their inhibitors, such as compound I, shown below, and described in EP 1081137, published Mar. 7, 2001: [drawing 1]
(§2) Incubations were carried out in 20 μl TSC buffer (50 mM Tris, pH 7.5 100 mM NaCl, 10 mM CaCl2) with protease inhibitor cocktail (“Complete”, EDTA free from Roche: catalog number 1873580)±1 μM compound I, for 18 hours at 37° C. The reactions were stopped by the addition of EDTA to 10 mM final concentration. The reaction mixtures were prepared for SDS-PAGE by the addition of 40 μl 2× sample buffer (Novex) containing 0.5 M DTT and then separated on 4-20% Tris glycine gels (Novex). […]
(§3) Treatment of the aggrecan protein with aggrecanases results in the formation of a characteristic cleavage site in the IGD. […] The crude rabbit antiserum was affinity purified against the corresponding neoepitope sequence and absorbed against a read-through peptide to ensure specificity for the neoepitope sequence. […]

[5] = target: T2, recombinant human ADAMTS-4; experiment: Western blot (anti-NITEGE neoepitope) of aggrecanase substrate cleavage by ADAMTS-4 ± compound I; assay type: biochemical; conditions: 1 μM compound I, 1 μM substrate, 18 hours at 37° C., FIG. 8
Description: as §1, §2, §3

[6] = target: aggrecanase substrate (aggrecan protein containing the interglobular domain (IGD)), uncleaved
[7] = test system: aggrecanase substrate (aggrecan protein containing the interglobular domain (IGD)); experiment: Cleavage of aggrecanase substrate by recombinant enzymes (anti-NITEGE Western blot); assay type: biochemical; conditions: 20 μl enzyme, 1 μM substrate, 18 hours at 37° C., FIG. 8
Description: as §1, §2, §3

inhibition of ADAMTS-SI aggrecanase activity (cleavage of aggrecanase substrate) [4]	inhibition of ADAMTS-4 aggrecanase activity (cleavage of aggrecanase substrate) [5]	Molecule	inhibition of aggrecan degradation [1]	IC50 [2]	IC50 [3]	cleavage of the aggrecanase substrate at the aggrecanase site (Western blot with anti-NITEGE neoepitope antibody) [6]	cleavage of aggrecanase substrate at aggrecanase site (NITEGE neoepitope) [7]
blocked	blocked	C[C@@]1(O)CCCN(S(=O)(=O)c2ccc(OCc3ccc(F)cc3Cl)cc2)[C@H]1C(=O)NO [compound I]	93 % inhibition	4.1 nM	8 nM		
		Recombinant human ADAMTS-SI (protein) FLSYPRFVEVLVVADNRMVSYHGENLQHYILTLMSIVASIYKDPSIGNLINIVIVNLIVIHNEQDGPSISFNAQTTLKNFCQWQHSKNSPGGIHHDTAVLLTRQDICRAHDKCDTLGLAELGTICDPYRSCSISEDSGLSTAFTIAHELGHVFNMPHDDNNKCKEEGVKSPQHVMAPTLNFYTNPWMWSKCSRKYITEFLDTGYGECLLNEPESRPYPLPVQLPGILYNVNKQCELIFGPGSQVCPYMMQCRRLWCNNVNGVHKGCRTQHTPWADGTECEPGKHCKYGFCVPKEMDVPVTDGSWGSWSPFGTCSRTCGGGIKTAIRECNRPEPKNGGKYCVGRRMKFKSCNTEPCLKQKRDFRDEQCAHFDGKHFNINGLLPNVRWVPKYSGILMKDRCKLFCRVAGNTAYYQLRDRVIDGTPCGQDTNDICVQGLCRQAGCDHVLNSKARRDKCGVCGGDNSSCKTVAGTFNTVHYGYNTVVRIPAGATNIDVRQHSFSGETDDDNYLALSSSKGEFLLNGNFVVTMAKREIRIGNAVVEYSGSETAVERINSTDRIEQELLLQVLSVGKLYNPDVRYSFNIPIEDKPQQFYWNSHGPWQACSKPCQGERKRKLVCTRESDQLTVSDQRCDRLPQPGHITEPCGTDCDLRWHVASRSECSAQCGLGYRTLDIYCAKYSRLDGKTEKVDDGFCSSHPKPSNREKCSGECNTGGWRYSAWTECSKSCDGGTQRRRAICVNTRNDVLDDSKCTHQEKVTIQRCSEFPCPQWKSGDWSECLVTCGKGHKHRQVWCQFGEDRLNDRMCDPETKPTSMQTCQQPECASWQAGPWGQCSVTCGQGYQLRAVKCIIGTYMSVVDDNDCNAATRPTDTQDCELPSCHPPPAAPETRRSTYSAPRTQWRFGSWTPCSATCGKGTRMRYVSCRDENGSVADESACATLPRPVAKEECSVTPCGQWKALDWSSCSVTCGQGRATRQVMCVNYSDHVIDRSECDQDYIPETDQDCSMSPCPQRTPDSGLAQHPFQNEDYRPRSASPSRTHVLGGNQWRTGPWGACSSTCAGGSQRRVVVCQDENGYTANDCVERIKPDEQRACESGPCPQWAYGNWGECTKLCGGGIRTRLVVCQRSNGERFPDLSCEILDKPPDREQCNTHACPHDAAWSTGPWSSCSVSCGRGHKQRNVYCMAKDGSHLESDYCKHLAKPHGHRKCRGGRCPKWKAGAWSQCSVSCGRGVQQRHVGCQIGTHKIARETECNPYTRPESERDCQGPRCPLYTWRAEEWQECTKTCGEGSRYRKVVCVDDNKNEVHGARCDVSKRPVDRESCSLQPCEYVWITGEWSEVPSWEL				treatment of the substrate with both ADAMTS-4 and ADAMTS-SI resulted in cleavage at the previously characterized aggrecanase cleavage site	
		recombinant human ADAMTS-4 (protein) FASLSRFVETLVVADDKMAAFHGAGLKRYLLTVMAAAAKAFKHPSIRNPVSLVVTRLVILGSGEEGPQVGPSAAQTLRSFCAWQRGLNTPEDSDPDHFDTAILFTRQDLCGVSTCDTLGMADVGTVCDPARSCAIVEDDGLQSAFTAAHELGHVFNMLHDNSKPCISLNGPLSTSRHVMAPVMAHVDPEEPWSPCSARFITDFLDNGYGHCLLDKPEAPLHLPVTFPGKDYDADRQCQLTFGPDSRHCPQLPPPCAALWCSGHLNGHAMCQTKHSPWADGTPCGPAQACMGGRCLHMDQLQDFNIPQAGGWGPWGPWGDCSRTCGGGVQFSSRDCTRPVPRNGGKYCEGRRTRFRSCNTEDCPTGSALTFREEQCAAYNHRTDLFKSFPGPMDWVPRYTGVAPQDQCKLTCQAQALGYYYVLEPRVVDGTPCSPDSSSVCVQGRCIHAGCDRIIGSKKKFDKCMVCGGDGSGCSKQSGSFRKFRYGYNNVVTIPAGATHILVRQQGNPGHRSIYLALKLPDGSYALNGEYTLMPSPTDVVLPGAVSLRYSGATAASETLSGHGPLAQPLTLQVLVAGNPQDTRLRYSFFVPRPTPSTPRPTPQDWLHRRAQILEILRRRPWAGRK				treatment of the substrate with both ADAMTS-4 and ADAMTS-SI resulted in cleavage at the previously characterized aggrecanase cleavage site	resulted in cleavage at the previously characterized aggrecanase cleavage site
